From paper PMC9917735, “Optimization of the Hemolysis Assay for the Assessment of Cytotoxicity” (International Journal of Molecular Sciences, 2023)
In brackets after ≈: the same amount, converted by molar mass. Like-named read-outs stand apart in the source and are kept apart here. Residues, ends and D or L forms follow the SMILES beside them. *: point of attachment. Hexanoyl = CCCCCC(=O)*

Assays:
mouse erythrocytes = settings: AMPs 100 μM, 1 hour 37 °C, pos. 10% Triton X-100, neg. PBS, 3 x 2 replicates
Description: (§1) Cytotoxicity studies are important during characterization of novel compounds or materials intended for interactions within human biological systems in vivo. Evaluation of the extent to which the compound induces disruption of the membrane of erythrocytes (red blood cells), thereby causing release of cellular content, often constitutes an initial step in such cytotoxicity assessments. The assay used in this context is generally referred to as the hemolysis assay, which has the advantages of being cheap, accessible, and simple to perform. Blood is drawn from a human or an animal, and next, the washed erythrocytes are incubated together with the compound or material under investigation. If the compound causes hemolysis, hemoglobin (along with other cellular constituents) will be released into the supernatant.
(§2) Blood from mice, rats, and rabbits was provided by the Department of Comparative Medicine at Oslo University Hospital (Marianne Aannestad). For mice and rats, the blood was collected from the heart by using 25 G and 21 G needles, respectively, whereas for rabbits, the blood was collected by free bleed through the ear using a yellow neoflon (24 G). All animals were wild type and anesthetized prior to the procedure.
(§3) All blood was collected in Lithium Heparin tubes 4 mL (Greiner Bio-One, Kremsmünster, Austria) or Coagulation sodium citrate 3.2% tubes 3 mL (Greiner Bio-One).
(§4) AMP 2 contained an N-terminal hexanoic acid moiety, whereas all peptides contained amidated C-termini. These three peptides were synthesized by Genscript Inc. (Piscataway, NJ, USA), and stock solutions of 1 mg/mL were made from the purchased powders. […] All peptides were diluted to yield a 100 μM final concentration in the hemolysis assays.
(§5) Triton X-100 (T8787) and Tween-20 (P2287) detergents were purchased from Sigma Aldrich and diluted to obtain 10% stock solutions by weighing (w/v). A sodium Dodecyl Sulfate (SDS) 10% solution was purchased from Invitrogen (Waltham, MA, USA, 15553027). All subsequent dilutions annotated in figures were made from these stocks.
(§6) As soon as possible after phlebotomy, the blood samples were centrifuged at 1700× g for 5 min. The supernatant was removed by aspiration and 2 mL of PBS pH 7 was added. The washing step was repeated three times or until the supernatant was clear. After final aspiration, the remaining pellet was diluted 1:100 in PBS pH 7 to obtain a 1% erythrocyte suspension (or 1:100, 1:50, and 1:20 for assays testing the effect of erythrocyte concentration). For experiments using whole blood, the washing steps were not performed, but downstream experimentation was identical. For experiments performed with 96-well plates, 50 μL of test compound, water, or detergent were mixed with 50 μL of blood sample (1% erythrocyte suspension or whole blood). For experiments using larger volumes, 250 μL of test compound, water, or detergent were mixed with 250 μL blood sample in an Eppendorf tube. Samples were subsequently incubated at 37 °C for 60 min (or 15, 30, 60, 90, or 120 min for assays evaluating the effect of incubation time). After incubation, the plates/tubes were centrifuged at 1700× g for 5 min, and then 50 μL of the supernatants were transferred to transparent, flat-bottom 96-well plates (Anicrin, A013418). Finally, absorption was measured at 405, 530, and 570 nm in a Victor Nivo Multimode microplate reader (Perkin Elmer, Waltham, MA, USA).

rabbit erythrocytes = settings: AMPs 100 μM, 1 hour 37 °C, pos. 10% Triton X-100, neg. PBS, 3 x 2 replicates
Description: as §1, §2, §3, §4, §5, §6

rabbit whole blood = settings: for Hemolysis ratio: rabbit whole blood, AMPs 100 μM, 1 hour 37 °C, 3 x 2 replicates
Description: as §1, §2, §3, §4, §5, §6

rat erythrocytes = settings: AMPs 100 μM, 1 hour 37 °C, pos. 10% Triton X-100, neg. PBS, 3 x 2 replicates
Description: as §1, §2, §3, §4, §5, §6

[1] = test system: washed human erythrocytes; assay: Flow cytometry of treated erythrocytes with live/dead amine-reactive stain; type: cell-based; settings: washed human erythrocytes treated 60 minutes, AMPs 100 μM, amine-reactive dye 488, flow cytometry 533/30 nm
Protocol: Briefly, a 1% washed erythrocyte solution was diluted to ~10^5 cells/mL and 0.4% Trypan blue (1:1 ratio) was added before 10 μL of the stained cell suspension was added to the Countess cell counting chamber slide. After a 30 s incubation, the slide was inserted into the instrument for automatic cell counting.
The Countess II automated cell counter (see above) was used to adjust the negative control sample to ~10^5 cells/mL and to subsequently dilute all samples by the same factor. Then, 0.5 μL of live/dead amine-reactive dye 488 (Fisher Scientific, Waltham, MA, USA) was added to 0.5 mL cell suspension and incubated for 30 min protected from light. Subsequently, the samples were washed twice with PBS pH 7 containing 1% bovine serum albumin (BSA), and finally resuspended in PBS pH 7 with 1% BSA. Cells were next counted, and the fluorescence measured using the 533/30 nm filter in an Accuri C6 flow cytometer (BD Biosciences, Franklin Lakes, NJ, USA).

human whole blood = settings: for Calculated hemolysis ratio: human whole blood, peptides 100 μM, 60 min 37 °C, neg. PBS, 3 x 2 replicates
E. coli = settings: E. coli
[2] = test system: washed human erythrocytes; assay: Hemolysis assay, washed human erythrocytes

## CCCCCC(=O)N[C@@H](CCSC)C(=O)N[C@@H](CCCCN)C(=O)N[C@@H](CCCNC(=N)N)C(=O)N[C@@H](CCCCN)C(=O)N[C@@H](CCCCN)C(=O)N[C@@H](CCCCN)C(=O)N[C@H](C(=O)N[C@@H](CC(C)C)C(=O)N[C@H](C(=O)N[C@@H](CCCCN)C(=O)N[C@@H](CCCCN)C(=O)N[C@H](C(=O)N[C@@H](CC(C)C)C(=O)N[C@@H](CCCCN)C(=O)N[C@@H](CC(C)C)C(=O)N[C@@H](CCCCN)C(=O)N[C@@H](CO)C(=O)N[C@@H](CO)C(=O)N[C@@H](C)C(=O)N[C@@H](Cc1ccc(O)cc1)C(N)=O)C(C)C)[C@@H](C)CC)[C@@H](C)CC [AMP 2] (Hexanoyl-MKRKKKILIKKVLKLKSSAY-NH2)
Mouse erythrocytes; Table S4: washed mouse erythrocytes, OD 405 nm
  Hemolysis ratio: 0.1 +/- 2%
Mouse erythrocytes; washed mouse erythrocytes, OD 530 nm
  Hemolysis ratio: -11.8 +/- 8%
Mouse erythrocytes; washed mouse erythrocytes, OD 570 nm
  Hemolysis ratio: -2.7 +/- 1.9%
Rabbit erythrocytes; Table S4: washed rabbit erythrocytes, OD 405 nm
  Hemolysis ratio: 4.6 +/- 0.7%
Rabbit erythrocytes; washed rabbit erythrocytes, OD 530 nm
  Hemolysis ratio: 1.7 +/- 3.6%
Rabbit erythrocytes; washed rabbit erythrocytes, OD 570 nm
  Hemolysis ratio: 2.2 +/- 1.4%
Rabbit whole blood; cf. Tables S3 and S4, 100 μM
  Fold decrease of hemolytic effect in rabbit whole blood vs washed rabbit erythrocytes: 23 fold
Rabbit whole blood; OD 405 nm, neg. PBS
  Hemolysis ratio: 0.6 +/- 3.2%
Rabbit whole blood; OD 530 nm, pos. 10% SDS, neg. PBS
  Hemolysis ratio: 0.2 +/- 0.6%
Rabbit whole blood; OD 570 nm, pos. 10% Triton X-100, neg. PBS
  Hemolysis ratio: 0.2 +/- 0.5%
Rat erythrocytes; Table S4: washed rat erythrocytes, OD 405 nm
  Hemolysis ratio: 5.2 +/- 1.9%
Rat erythrocytes; washed rat erythrocytes, OD 530 nm
  Hemolysis ratio: 2.6 +/- 5.7%
Rat erythrocytes; washed rat erythrocytes, OD 570 nm
  Hemolysis ratio: 3.3 +/- 3%
[1]
  Fluorescence intensity per cell of remaining intact cells (live/dead stain): low fluorescence
Human whole blood; OD 405 nm (signal saturated), pos. 10% SDS
  Calculated hemolysis ratio: 0.4 ± 0.2%
Human whole blood; OD 530 nm, pos. 10% SDS
  Calculated hemolysis ratio: 0.2%
Human whole blood; OD 570 nm, pos. 10% Triton X-100 (table title; text says 10% SDS)
  Calculated hemolysis ratio: −0.1%
Human whole blood; whole blood HR with 10% SDS as positive control (Table 5) vs washed erythrocytes (Table 6), 100 μM
  Fold reduction in HR in human whole blood in comparison with washed erythrocytes measured at 405 nm: > 41 fold
E. coli
  Minimum inhibitory concentration (E. coli): 4 µM (≈ 10 µg/mL)
[2]; 1% washed human erythrocytes, OD 530 nm, peptides 100 μM, 60 min 37 °C, pos. 10% Triton X-100, neg. PBS, 3 x 2 replicates
  Calculated hemolysis ratio: 5.2 ± 3%
[2]; 1% washed human erythrocytes, OD 570 nm, peptides 100 μM, 60 min 37 °C, pos. 10% Triton X-100, neg. PBS, 3 x 2 replicates
  Calculated hemolysis ratio: 4.8 ± 6.6%
[2]; 2% pooled human erythrocytes, AMPs 100 µM, 60 min 37 °C, 405 nm, pos. 10% Triton X-100, neg. PBS, 3 x 2 replicates
  Calculated Hemolysis (%): 5.6 ± 0.8%
[2]; 5% pooled human erythrocytes, AMPs 100 µM, 60 min 37 °C, 405 nm, pos. 10% Triton X-100, neg. PBS, 3 x 2 replicates
  Calculated Hemolysis (%): 5.0 ± 3.3%
[2]; Table 1: 1% human erythrocytes, 100 µM, 60 min 37 °C, OD 405 nm, pos. 10% Triton X-100, neg. PBS, mean ± SD, 3 experimental x 2 technical replicates
  Calculated hemolysis ratio: 8.5 ± 1.4%
[2]; Table 2: pooled blood from all 10 individuals, 1% erythrocytes, AMPs 100 µM, 60 min 37 °C, 405 nm, pos. 10% Triton X, neg. PBS, 3 x 2 replicates
  Calculated hemolysis ratio: 12.4 ± 3.1%
[2]; Table 3: 1% pooled human erythrocytes, AMPs 100 µM, 60 min 37 °C, 405 nm, pos. 10% Triton X-100, neg. PBS, 3 x 2 replicates
  Calculated Hemolysis (%): 12.4 ± 3.1%
[2]; Table 4: incubation 60 min, 37 °C, 1% human erythrocytes, AMPs 100 µM, 405 nm, pos. 10% Triton X-100, neg. PBS, 3 biological x 2 technical replicates
  Calculated hemolysis ratio: 7.8 ± 1.3%
[2]; Table 6: 1% washed human erythrocytes, OD 405 nm, peptides 100 μM, 60 min 37 °C, pos. 10% Triton X-100, neg. PBS, 3 x 2 replicates
  Calculated hemolysis ratio: 8.2 ± 1.4%
[2]; human individual # 1, 1% erythrocytes, AMPs 100 µM, 60 min 37 °C, 405 nm, pos. 10% Triton X, neg. PBS, 3 x 2 replicates
  Calculated hemolysis ratio: 8.2 ± 1.3%
[2]; human individual # 2, 1% erythrocytes, AMPs 100 µM, 60 min 37 °C, 405 nm, pos. 10% Triton X, neg. PBS, 3 x 2 replicates
  Calculated hemolysis ratio: 10 ± 0.7%
[2]; human individual # 3, 1% erythrocytes, AMPs 100 µM, 60 min 37 °C, 405 nm, pos. 10% Triton X, neg. PBS, 3 x 2 replicates
  Calculated hemolysis ratio: 9.8 ± 0.8%
[2]; human individual # 4, 1% erythrocytes, AMPs 100 µM, 60 min 37 °C, 405 nm, pos. 10% Triton X, neg. PBS, 3 x 2 replicates
  Calculated hemolysis ratio: 10.4 ± 0.9%
[2]; human individual # 5, 1% erythrocytes, AMPs 100 µM, 60 min 37 °C, 405 nm, pos. 10% Triton X, neg. PBS, 3 x 2 replicates
  Calculated hemolysis ratio: 11 ± 1%
[2]; human individual # 6, 1% erythrocytes, AMPs 100 µM, 60 min 37 °C, 405 nm, pos. 10% Triton X, neg. PBS, 3 x 2 replicates
  Calculated hemolysis ratio: 6.4 ± 0.7%
[2]; human individual # 7, 1% erythrocytes, AMPs 100 µM, 60 min 37 °C, 405 nm, pos. 10% Triton X, neg. PBS, 3 x 2 replicates
  Calculated hemolysis ratio: 8.9 ± 0.8%
[2]; human individual # 8, 1% erythrocytes, AMPs 100 µM, 60 min 37 °C, 405 nm, pos. 10% Triton X, neg. PBS, 3 x 2 replicates
  Calculated hemolysis ratio: 9.1 ± 1.1%
[2]; human individual # 9, 1% erythrocytes, AMPs 100 µM, 60 min 37 °C, 405 nm, pos. 10% Triton X, neg. PBS, 3 x 2 replicates
  Calculated hemolysis ratio: 9.6 ± 1%
[2]; human individual # 10, 1% erythrocytes, AMPs 100 µM, 60 min 37 °C, 405 nm, pos. 10% Triton X, neg. PBS, 3 x 2 replicates
  Calculated hemolysis ratio: 9.8 ± 0.7%
[2]; incubated in polypropylene tubes, 1% washed human erythrocytes, peptides 100 μM, 60 min 37 °C, 405 nm, pos. 10% Triton X-100, neg. PBS, 3 x 2 replicates
  Calculated hemolysis ratio: 8.2 ± 2.6%
[2]; incubated in polystyrene tubes, 1% washed human erythrocytes, peptides 100 μM, 60 min 37 °C, 405 nm, pos. 10% Triton X-100, neg. PBS, 3 x 2 replicates
  Calculated hemolysis ratio: 9.7 ± 3.4%
[2]; incubation 15 min, 37 °C, 1% human erythrocytes, AMPs 100 µM, 405 nm, pos. 10% Triton X-100, neg. PBS, 3 biological x 2 technical replicates
  Calculated hemolysis ratio: 7.8 ± 1.1%
[2]; incubation 30 min, 37 °C, 1% human erythrocytes, AMPs 100 µM, 405 nm, pos. 10% Triton X-100, neg. PBS, 3 biological x 2 technical replicates
  Calculated hemolysis ratio: 7.4 ± 1.2%
[2]; incubation 90 min, 37 °C, 1% human erythrocytes, AMPs 100 µM, 405 nm, pos. 10% Triton X-100, neg. PBS, 3 biological x 2 technical replicates
  Calculated hemolysis ratio: 8 ± 0.8%
[2]; incubation 120 min, 37 °C, 1% human erythrocytes, AMPs 100 µM, 405 nm, pos. 10% Triton X-100, neg. PBS, 3 biological x 2 technical replicates
  Calculated hemolysis ratio: 8.6 ± 1.4%
[2]; reason for choice of the AMPs
  Observed hemolytic properties (qualitative): low
[2]; total incubation volume 100 μL, 1% washed human erythrocytes, peptides 100 μM, 60 min 37 °C, 405 nm, pos. 10% Triton X-100, neg. PBS, 3 x 2 replicates
  Calculated hemolysis ratio: 9.7 ± 3.4%
[2]; total incubation volume 500 μL, 1% washed human erythrocytes, peptides 100 μM, 60 min 37 °C, 405 nm, pos. 10% Triton X-100, neg. PBS, 3 x 2 replicates
  Calculated hemolysis ratio: 8.8 ± 3.9%
